From ChEMBL document CHEMBL1133193, “4-[3-(5,6,7,8-Tetrahydro-5,5,8,8-tetramethyl-2-naphthalenyl)phenyl]benzoic acid and heterocyclic-bridged analogues are novel retinoic acid receptor subtype and retinoid X receptor alpha agonists” (Bioorg Med Chem Lett, 2000)

What was measured:
[1] = molecular target: T1, Retinoic acid receptor beta (Homo sapiens, UniProt P10826); assay: Transcriptional activation in CV-1 cells expressing Retinoic acid receptor beta; type: cell-based, Cercopithecidae
T1 sequence (P10826 whole entry): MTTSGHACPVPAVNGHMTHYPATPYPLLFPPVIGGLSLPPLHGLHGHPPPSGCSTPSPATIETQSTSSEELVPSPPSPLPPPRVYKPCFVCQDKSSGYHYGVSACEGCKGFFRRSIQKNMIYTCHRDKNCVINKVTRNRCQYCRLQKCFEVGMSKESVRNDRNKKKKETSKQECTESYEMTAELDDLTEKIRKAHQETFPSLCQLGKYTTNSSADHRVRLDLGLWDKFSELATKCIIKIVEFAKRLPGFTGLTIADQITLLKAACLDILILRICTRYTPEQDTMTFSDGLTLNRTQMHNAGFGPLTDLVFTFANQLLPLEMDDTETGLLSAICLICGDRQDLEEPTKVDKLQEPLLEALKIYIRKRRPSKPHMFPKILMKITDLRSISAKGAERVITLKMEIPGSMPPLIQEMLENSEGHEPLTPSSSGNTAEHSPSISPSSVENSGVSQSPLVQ

T47D = assay: Inhibition of T47D retinoid sensitive breast carcinoma cell proliferation at 1 uM; type: functional; conditions: Homo sapiens
[2] = molecular target: T2, Retinoic acid receptor RXR-alpha (Homo sapiens) (UniProt P19793); assay: Percent activation of Retinoic acid receptor RXR-alpha at 1 uM relative to 1 uM 9-cis-retinoic acid
T2 sequence (whole entry): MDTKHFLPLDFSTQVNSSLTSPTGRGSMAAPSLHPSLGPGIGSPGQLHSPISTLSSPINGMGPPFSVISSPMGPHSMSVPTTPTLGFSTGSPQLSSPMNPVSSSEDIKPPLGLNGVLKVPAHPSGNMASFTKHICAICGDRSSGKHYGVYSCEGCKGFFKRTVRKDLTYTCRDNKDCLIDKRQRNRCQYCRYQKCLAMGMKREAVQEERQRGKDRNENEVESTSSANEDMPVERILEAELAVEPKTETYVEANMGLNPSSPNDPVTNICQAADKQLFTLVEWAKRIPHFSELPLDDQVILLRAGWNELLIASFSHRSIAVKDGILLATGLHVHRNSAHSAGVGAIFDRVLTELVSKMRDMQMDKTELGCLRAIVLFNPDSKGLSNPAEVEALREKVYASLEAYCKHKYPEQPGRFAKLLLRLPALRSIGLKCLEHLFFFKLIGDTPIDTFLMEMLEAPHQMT

ZR-75-1 = assay: Inhibition of ZR-75-1 retinoid sensitive breast carcinoma cell proliferation at 1 uM; type: functional; conditions: Homo sapiens
MDA-MB-231 = assay: Growth of MDA-MB-231 retinoid resistant breast carcinoma cells at 1 uM; conditions: Homo sapiens
[3] = molecular target: T3, Retinoic acid receptor alpha (Homo sapiens, UniProt P10276); assay: Transcriptional activation in CV-1 cells expressing Retinoic acid receptor alpha; type: cell-based, Cercopithecidae
T3 sequence (P10276 whole entry): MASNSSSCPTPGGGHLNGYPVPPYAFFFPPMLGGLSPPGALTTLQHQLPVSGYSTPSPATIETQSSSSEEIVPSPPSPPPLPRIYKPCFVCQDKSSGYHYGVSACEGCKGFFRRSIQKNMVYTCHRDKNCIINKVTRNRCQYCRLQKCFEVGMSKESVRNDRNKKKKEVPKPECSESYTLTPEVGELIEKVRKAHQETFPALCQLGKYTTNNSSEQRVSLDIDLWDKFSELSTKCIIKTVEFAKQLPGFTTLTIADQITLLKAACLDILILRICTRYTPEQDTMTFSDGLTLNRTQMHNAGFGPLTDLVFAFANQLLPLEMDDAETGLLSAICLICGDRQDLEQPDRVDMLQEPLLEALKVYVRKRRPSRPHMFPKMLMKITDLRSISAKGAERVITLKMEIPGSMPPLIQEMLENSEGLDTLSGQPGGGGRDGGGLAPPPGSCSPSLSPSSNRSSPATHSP

[4] = molecular target: T4, Retinoic acid receptor gamma (Homo sapiens, UniProt P13631); assay: Transcriptional activation in CV-1 cells expressing retinoic acid gamma receptor; type: cell-based, Cercopithecidae
T4 sequence (P13631 whole entry): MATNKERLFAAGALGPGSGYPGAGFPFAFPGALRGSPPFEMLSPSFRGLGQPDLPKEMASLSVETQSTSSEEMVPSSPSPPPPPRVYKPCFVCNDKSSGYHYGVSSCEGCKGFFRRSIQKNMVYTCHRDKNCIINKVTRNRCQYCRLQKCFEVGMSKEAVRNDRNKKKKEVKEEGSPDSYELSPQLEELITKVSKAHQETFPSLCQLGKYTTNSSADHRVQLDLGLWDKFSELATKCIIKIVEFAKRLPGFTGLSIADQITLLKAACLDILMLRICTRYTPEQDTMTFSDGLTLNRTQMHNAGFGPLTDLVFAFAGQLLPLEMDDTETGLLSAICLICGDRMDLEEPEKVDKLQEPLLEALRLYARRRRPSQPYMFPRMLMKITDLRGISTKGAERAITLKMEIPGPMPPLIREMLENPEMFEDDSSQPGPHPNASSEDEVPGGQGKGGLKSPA

[5] = molecular target: T5, Retinoic acid receptor RXR-alpha (Homo sapiens, UniProt P19793); assay: Transcriptional activation in CV-1 cells expressing Retinoic acid receptor RXR-alpha; type: cell-based, Cercopithecidae
T5 sequence (P19793 whole entry): T2 sequence (whole entry)

| SMILES | AC50 [1] [nM] | inhibition at 1 µM (T47D) [%] | Activation [2] [%] | inhibition at 1 µM (ZR-75-1) [%] | growth relative to control at 1 µM (MDA-MB-231) [%] | AC50 [3] [nM] | AC50 [4] [nM] | AC50 [5] [nM] |
| --- | --- | --- | --- | --- | --- | --- | --- | --- |
| CC1(C)CCC(C)(C)c2cc(-c3cccc(-c4ccc(C(=O)O)cc4)c3)ccc21 | 4.3 | 32 | 27 | 47 | 80 | 1 | 2.3 | > 1000 |
| CC1(C)CCC(C)(C)c2cc(-c3cccc(-c4ccc(C(=O)O)cc4)n3)ccc21 | 140 | – | 17 | – | – | 370 | > 1000 | > 1000 |
| Cc1ccc(-c2ccc(C(=O)O)cc2)cc1-c1cc2c(cc1C)C(C)(C)CCC2(C)C | 10 | – | 70 | – | – | > 1000 | 1 | 430 |
| Cc1cc2c(cc1-c1cccc(-c3ccc(C(=O)O)cc3)n1)C(C)(C)CCC2(C)C | > 1000 | – | 0 | – | – | > 1000 | 1000 | > 1000 |
| C/C(=C\c1ccc(C(=O)O)cc1)c1ccc2c(c1)C(C)(C)CCC2(C)C | – | – | 0 | – | – | – | – | > 1000 |
| Cc1ccc(-c2ccc(C(=O)O)cc2)cc1-c1ccc2c(c1)C(C)(C)CCC2(C)C | < 1 | 35 | 85 | 49 | 75 | 79 | < 1 | 135 |
| CC1(C)CCC(C)(C)c2cc(-c3ccc4cc(C(=O)O)ccc4c3)ccc21 | 52 | – | 0 | – | – | > 1000 | 68 | > 1000 |
| Cc1cc2c(cc1-c1ncc(-c3ccc(C(=O)O)cc3)s1)C(C)(C)CCC2(C)C | 740 | – | 8 | – | – | > 1000 | 220 | > 1000 |
| CC1=C(/C=C/C(C)=C\C=C\C(C)=C\C(=O)O)C(C)(C)CCC1 [ALITRETINOIN] | – | 35 | – | 59 | 69 | – | – | – |
| CC1=C(/C=C/C(C)=C/C=C/C(C)=C/C(=O)O)C(C)(C)CCC1 [TRETINOIN] | – | 39 | – | 70 | 94 | – | – | – |
